According to patent US12532889B2, “Herbicidal compositions comprising glufosinate” (BASF SE, priority 2023, dated 2026):

Key:
Assay in all cases: Post-emergence application in field trials (Example A)
Format in all cases: in vivo
ZEAMX (Zea mays) = tested on: ZEAMX (Zea mays)
In short: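 Colby-expected additive activity (E) served as reference for mixture responses in post-emergence field trials on natural or seeded weeds. Activity was visually scored 0–100% against untreated controls at indicated DAT.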

ELEIN (Eleusine indica) = tested on: ELEIN (Eleusine indica)
Description: (§1) In the examples below, using the method of S. R. Colby (1967) “Calculating synergistic and antagonistic responses of herbicide combinations”, Weeds 15, p. 22ff., the value E, which is expected if the activity of the individual active compounds is only additive, was calculated:
(§2) [formula] • where • X=percent activity using active herbicide A at an application rate a; • Y=percent activity using active herbicide B (e.g. glufosinate) at an application rate b; • E=expected activity (in %) by A+B at application rates a+b.
(§3) If the value found experimentally is higher than the value E calculated according to Colby, a synergistic effect is present.
(§4) On field test sites, natural weed infestation or seeded weeds were treated post-emergence of the weeds.
(§5) In the field trials, the weeds were treated as indicated below.
(§6) In the following experiments, the herbicidal activity for the individual herbicidal compositions (solo and mixture applications) was assessed at the indicated days after treatment (DAT). The assessments for the damage on undesired weeds caused by the composition was carried out using a scale from 0 to 100%, compared to the untreated control plants. Here, 0 means no damage and 100 means complete destruction of the plants.
(§7) Post-emergence application of Herbicide A-1 (A-1) and glufosinate ammonium (B-2) in Field Trials:
(§8) Herbicide A-1 (50 g/l), glufosinate ammonium (200 g/l) and optional herbicide C were, together with addition of 0.5% v/v MSO (methylated seed oil) as adjuvant, formulated in water as distribution medium as indicated and sprayed with commercial flat fan nozzles.

EPHHI (Euphorbia hirta) = conditions: Table 1.2; EPHHI height 25 cm; A-1 solo 25 g ai/ha; 14 DAT; water volume 100 l/ha; 0.5% v/v MSO
Description: as §1, §2, §3, §4, §5, §6, §7, §8

[1] = tested on: DIGIN = TRCIN (Digitaria insularis)
Description: as §1, §2, §3, §4, §5, §6, §7, §8

[2] = tested on: CYPDI (Cyperus difformis); conditions: CYPDI height 25 cm
Description: as §1, §2, §3, §4, §5, §6, §7, §8

[3] = tested on: SPCHI (Spermacoce hispida); conditions: Table 1.2, SPCHI height 25 cm, 14 DAT, water volume 100 l/ha, 0.5% v/v MSO
Description: as §1, §2, §3, §4, §5, §6, §7, §8

[4] = 42 DAT, A-1 18 g ai/ha, growth stage 15-16, height 27-33 cm

CCOC(=O)COc1ccccc1Oc1nc(-n2c(=O)cc(C(F)(F)F)n(C)c2=O)c(F)cc1Cl [A-1, ethyl 2-[2-[[3-chloro-5-fluoro-6-[3-methyl-2,6-dioxo-4-(trifluoromethyl)pyrimidin-1-yl]-2-pyridyl]oxy]phenoxy]acetate]
% Herbicidal activity (ZEAMX (Zea mays); 21 DAT, A-1 12.5 g ai/ha, growth stage 15-16, height 27-33 cm): 35% | % herbicidal activity (ZEAMX (Zea mays); 21 DAT, A-1 12.5 g ai/ha, growth stage 15-16, height 50-60 cm): 70% | % herbicidal activity (ZEAMX (Zea mays); 28 DAT, A-1 12.5 g ai/ha, growth stage 15-16, height 50-60 cm): 50% | % Herbicidal activity (ZEAMX (Zea mays); 42 DAT, A-1 12.5 g ai/ha, growth stage 15-16, height 27-33 cm): 20% | % Herbicidal activity (ZEAMX (Zea mays); [4]): 30% | % herbicidal activity (ZEAMX (Zea mays); [4]): 20% | % herbicidal activity (ZEAMX (Zea mays); Table 1.12, ZEAMX volunteer corn, A-1 50, B-2 400 g ai/ha, 21 DAT, water 100 l/ha): 83% | % herbicidal activity (ZEAMX (Zea mays); Table 6.1, ZEAMX growth stage 15-16, height 50-60 cm, A-1 18, B-6 252 g ai/ha, 7 DAT, 200 l/ha water): 85% | % herbicidal activity (ELEIN (Eleusine indica); Table 1.10, ELEIN growth stage 23-25, height 3-5 cm, A-1 25, B-2 400 g ai/ha, 20 DAT, water 200 l/ha): 82% | % herbicidal activity (ELEIN (Eleusine indica); Table 1.1, ELEIN growth stage 24, A-1 solo 25 g ai/ha, 14 DAT, water volume 100 l/ha, 0.5% v/v MSO): 75% | % herbicidal activity (ELEIN (Eleusine indica); Table 1.14, ELEIN growth stage 24, A-1 25, B-2 400 g ai/ha, 21 DAT, water 100 l/ha): 58% | % herbicidal activity (ELEIN (Eleusine indica); Table 1.15, ELEIN height 25 cm, A-1 25, B-2 400 g ai/ha, 21 DAT, water 100 l/ha): 50% | % herbicidal activity (ELEIN (Eleusine indica); Table 1.15, ELEIN height 25 cm, A-1 50, B-2 400 g ai/ha, 21 DAT, water 100 l/ha): 60% | % herbicidal activity (ELEIN (Eleusine indica); Table 1.18, ELEIN growth stage 24, A-1 25, B-2 400 g ai/ha, 21 DAT, water 200 l/ha): 67% | % herbicidal activity (ELEIN (Eleusine indica); Table 1.18, ELEIN growth stage 24, A-1 50, B-2 400 g ai/ha, 21 DAT, water 200 l/ha): 82% | % herbicidal activity (ELEIN (Eleusine indica); Table 1.21, ELEIN growth stage 24, A-1 25, B-2 400 g ai/ha, 21 DAT, water 200 l/ha): 68% | % herbicidal activity (ELEIN (Eleusine indica); Table 1.21, ELEIN growth stage 24, A-1 50, B-2 400 g ai/ha, 21 DAT, water 200 l/ha): 73% | % herbicidal activity (ELEIN (Eleusine indica); Table 1.4, ELEIN growth stage 24, A-1 50, B-2 400 g ai/ha, 14 DAT, water 200 l/ha): 88% | % herbicidal activity (ELEIN (Eleusine indica); Table 1.9, ELEIN growth stage 23-25, height 3-5 cm, A-1 25, B-2 400 g ai/ha, 20 DAT, water 100 l/ha): 91% | % herbicidal activity (EPHHI (Euphorbia hirta)): 50% | % herbicidal activity ([1]; Table 1.13, DIGIN height 20-30 cm, A-1 50, B-2 400 g ai/ha, 21 DAT, water 100 l/ha): 30% | % herbicidal activity ([1]; Table 1.17, DIGIN height 20-30 cm, A-1 50, B-2 400 g ai/ha, 21 DAT, water 200 l/ha): 30% | % herbicidal activity ([1]; Table 1.19, DIGIN height 20-30 cm, A-1 50, B-2 400 g ai/ha, 21 DAT, water 200 l/ha): 30% | % herbicidal activity ([1]; Table 1.20, DIGIN height 60-80 cm, A-1 50, B-2 400 g ai/ha, 21 DAT, water 200 l/ha): 55% | % herbicidal activity ([1]; Table 1.22, DIGIN in tillering stage, height 5-15 cm, A-1 50, B-2 400 g ai/ha, 21 DAT, water 200 l/ha): 57% | % herbicidal activity ([1]; Table 1.22, DIGIN in tillering stage, height 5-15 cm, A-1 50, B-2 600 g ai/ha, 21 DAT, water 200 l/ha): 57% | % herbicidal activity ([1]; Table 1.23, DIGIN growth stage 16-18, height 15-25 cm, A-1 50, B-2 400 g ai/ha, 21 DAT, water 200 l/ha): 57% | % herbicidal activity ([1]; Table 1.23, DIGIN growth stage 16-18, height 15-25 cm, A-1 50, B-2 600 g ai/ha, 21 DAT, water 200 l/ha): 57% | % herbicidal activity ([1]; Table 1.24, DIGIN growth stage 67, height 100 cm, A-1 50, B-2 400 g ai/ha, 21 DAT, water 200 l/ha): 7% | % herbicidal activity ([1]; Table 1.24, DIGIN growth stage 67, height 100 cm, A-1 50, B-2 600 g ai/ha, 21 DAT, water 200 l/ha): 7% | % herbicidal activity ([1]; Table 1.25, DIGIN in tillering stage, height 8-20 cm, A-1 50, B-2 400 g ai/ha, 21 DAT, water 200 l/ha): 53% | % herbicidal activity ([1]; Table 1.25, DIGIN in tillering stage, height 8-20 cm, A-1 50, B-2 600 g ai/ha, 21 DAT, water 200 l/ha): 53% | % herbicidal activity ([1]; Table 1.26, DIGIN in tillering stage, height 50-70 cm, A-1 50, B-2 400 g ai/ha, 21 DAT, water 200 l/ha): 55% | % herbicidal activity ([1]; Table 1.26, DIGIN in tillering stage, height 50-70 cm, A-1 50, B-2 600 g ai/ha, 21 DAT, water 200 l/ha): 55% | % herbicidal activity ([1]; Table 1.3, DIGIN height 60-80 cm, A-1 25, B-2 400 g ai/ha, 14 DAT, water 200 l/ha): 37% | % herbicidal activity ([1]; Table 1.3, DIGIN height 60-80 cm, A-1 50, B-2 400 g ai/ha, 14 DAT, water 200 l/ha): 60% | % herbicidal activity ([1]; Table 1.5, DIGIN growth stage 16-18, height 15-25 cm, A-1 50, B-2 400 g ai/ha, 14 DAT, water 200 l/ha): 62% | % herbicidal activity ([1]; Table 1.5, DIGIN growth stage 16-18, height 15-25 cm, A-1 50, B-2 600 g ai/ha, 14 DAT, water 200 l/ha): 62% | % herbicidal activity ([1]; Table 1.7, DIGIN height 50-70 cm, tillering stage, A-1 solo 50 g ai/ha, 14 DAT, water volume 200 l/ha, 0.5% v/v MSO): 42% | % herbicidal activity ([2]; Table 1.15, A-1 25, B-2 400 g ai/ha, 21 DAT, water 100 l/ha): 50% | % herbicidal activity ([2]; Table 1.2, A-1 solo 25 g ai/ha, 14 DAT, water volume 100 l/ha, 0.5% v/v MSO): 52% | % herbicidal activity ([2]; Table 1.2, A-1 solo 50 g ai/ha, 14 DAT, water volume 100 l/ha, 0.5% v/v MSO): 60% | % herbicidal activity ([3]; A-1 solo 25 g ai/ha): 40% | % herbicidal activity ([3]; A-1 solo 50 g ai/ha): 50%
